{
  "source": "patent US20260232720A1",
  "about": "“NEW MEDICAL USE OF SEVUPARIN IN THE TREATMENT OF ENDOTOXEMIA” (Modus Therapeutics AB, priority 2023, published 2026)",
  "key": {"healthy volunteers [1]": {"tested_on": "healthy volunteers", "details": "for Body temperature / Diastolic blood pressure / Heart rate / NRS feeling sick / Systolic blood pressure: LS Means, IV LPS 1 ng/kg", "from_the_text": "(§1) A randomized, placebo-controlled study to evaluate the effects of intravenous sevuparin on LPS reactions (first part), and the interaction between subcutaneous enoxaparin and sevuparin on coagulation responses in healthy volunteers (second part), has been performed.\n(§2) Objectives for first part of the clinical study: To evaluate the effect of intarvenous (IV) sevuparin on safety and tolerability and inflammatory responses following an intravenous (IV) LPS challenge.\n(§3) In the first part of the study, sevuparin (or matching placebo) is administered by IV infusion (bolus loading dose followed by continuous infusion over 6 hours); In the second part of the study, sevuparin and enoxaparin are given by subcutaneous injection.\n(§4) The sevuparin dose was as follows in the first part of the study: • Group 1 (sevuparin low dose): loading bolus dose of 0.3 mg/kg bodyweight, followed by IV infusion at 0.08 mg/kg/h; • Group 2 (sevuparin intermediate dose): loading dose of 1 mg/kg bodyweight, followed by IV infusion at 0.25 mg/kg/h; • Group 3 (sevuparin high dose): loading dose of 3 mg/kg bodyweight, followed by IV infusion at 0.75 mg/kg/h.\n(§5) In the first part of the study, 1 ng/kg bodyweight of LPS was administered intravenously.\n(§6) In the first part of the study, a total of 48 male and female healthy volunteers were enrolled and randomized over 4 treatment groups (sevuparin low, intermediate or high dose or matching placebo). Each treatment group consisted of 12 healthy volunteers. All subjects underwent an intravenous LPS challenge.\n(§7) In the first part of the current study, subjects are administered with intravenous LPS 30 min after the start of the infusion of sevuparin on study Day 1. LPS, purified lipopolysaccharide prepared from Escherichia Coli: 113: H10: K negative (U.S. Standard Reference Endotoxin) is used. This LPS batch was manufactured in the US by List Biological Laboratories. All participants received 1 ng/kg E. coli purified LPS, administered as a 2-minute infusion. To ensure that participants stay adequately hydrated, additionally saline (NaCl 0.9%) or glucose/saline was infused (2.5% glucose/0.45% sodium chloride) starting approximately 2 hours before LPS administration at a rate of 750 ml/h, until 6 h afterwards at a rate of 150 ml/h (Hijma et al., 2020). During infusion of study drug or placebo, infused over 6 hours at an infusion rate of 80 mL/h, the infusion rate of glucose/saline was lowered to 80 mL/h.\nEvaluations of systolic and diastolic blood pressure, pulse rate, respiratory rate, and temperature is performed throughout the study. Pulse and blood pressure is taken after 5 minutes in the supine position. Automated oscillometric blood pressures and pulse rate is measured using a Dash 3000,\nSubjective assessment of feeling sick is recorded by the subjects during the first part of the study (IV LPS infusion) on a numeric rating scale (NRS) electronically.\n(§8) Throughout the Figures and tables related to the clinical study test results, the following abbreviations and its definitions are used: • IV LPS Placebo means subjects who have been challenged with intravenous LPS and thereafter received placebo intravenously as described above. • Sevuparin 0.3/0.08 means (sevuparin low dose): loading bolus dose of 0.3 mg/kg bodyweight, followed by 0.08 mg/kg/h intravenously; • Sevuparin 1/0.25 means (sevuparin intermediate dose): loading dose of 1 mg/kg bodyweight, followed by 0.25 mg/kg/h intravenously; • Sevuparin 3/0.75 means (sevuparin high dose): loading dose of 3 mg/kg bodyweight, followed by 0.75 mg/kg/h intravenously."}, "[2]": {"tested_on": "inflammatory biomarkers cytokines and C-Reactive Protein (CRP)", "details": "for C-Reactive Protein / IL-6 in plasma / IL-8 in plasma / IL-10 in plasma / TNF-α in plasma: LS Means, IV LPS 1 ng/kg", "from_the_text": "as §1, §2\n(§9) • Leucocyte differential • Cytokines (including IL-6, IL-8, IL-10 and TNF-α) • Flow cytometry (Neutrophils, monocyte subsets, T cells, B cells, NK cells, dendritic cells, including neutrophil extracellular traps) • Explorative biomarkers: acute phase reactants and components measurable in blood, serum and plasma of relevance for septic inflammation may be measured and reported separately.\nas §3, §4, §5, §6, §7\nBlood is collected at time points as shown in Table 1 below for the assessment of cytokines. Venous blood (4 mL) is collected in K2EDTA tubes. Plasma is collected after centrifugation at 2000×g for 20 minutes at room temperature and stored at −80° C., in 3×0.5 ml aliquots until analysis. Samples are analysed by Ardena Laboratories Assen.\nas §8"}, "healthy volunteers [3]": {"tested_on": "healthy volunteers", "details": "for Basophil count / Eosinophil count / Lymphocyte count / Monocyte count / Neutrophil count: LS Means, IV LPS 1 ng/kg", "from_the_text": "as §1, §2, §9, §3, §4, §5, §6, §7\nBlood and other biological samples are collected for the following clinical laboratory tests: Haematology; Chemistry and electrolytes; Glucose; […] (after 4-hours fasting); […] (conjugated bilirubin is reported only when total bilirubin is outside the reference range); Virology; Urinalysis; Pregnancy (for women, serum pregnancy test is performed at screening and urine pregnancy test at other visits when scheduled, and if pregnancy is suspected during the study); Alcohol screening; and Urine drug screening."}, "[4]": {"details": "IV LPS, in words, all doses vs placebo"}, "[5]": {"details": "sevuparin 0.3/0.08 (loading bolus 0.3 mg/kg, then 0.08 mg/kg/h IV)"}, "[6]": {"details": "sevuparin 1.0/0.25 (loading 1 mg/kg, then 0.25 mg/kg/h IV)"}, "[7]": {"details": "sevuparin 3.0/0.75 (loading 3 mg/kg, then 0.75 mg/kg/h IV)"}},
  "note": "Like-named read-outs stand apart in the source and are kept apart here.",
  "data": [
    {"substance": "sevuparin", "values": [
      {"measurement": "respiratory rate compared to placebo", "setting": "healthy volunteers [1]; FIG. 2, IV LPS, highest intravenously administered dose of sevuparin", "result": "improvement of the respiratory rate"},
      {"measurement": "therapeutic impact on body temperature", "setting": "healthy volunteers [1]; [4]", "result": "did not have any therapeutic impact"},
      {"measurement": "therapeutic impact on diastolic blood pressure", "setting": "healthy volunteers [1]; [4]", "result": "did not have any therapeutic impact"},
      {"measurement": "therapeutic impact on feeling sick", "setting": "healthy volunteers [1]; [4]", "result": "did not have any therapeutic impact"},
      {"measurement": "therapeutic impact on heart rate", "setting": "healthy volunteers [1]; [4]", "result": "did not have any therapeutic impact"},
      {"measurement": "therapeutic impact on systolic blood pressure", "setting": "healthy volunteers [1]; [4]", "result": "did not have any therapeutic impact"},
      {"measurement": "Body temperature", "setting": "healthy volunteers [1]; [5]", "result": 37.13},
      {"measurement": "Diastolic blood pressure", "setting": "healthy volunteers [1]; [5]", "result": 63.5, "unit": "mm Hg"},
      {"measurement": "Heart rate", "setting": "healthy volunteers [1]; [5]", "result": 69.7, "unit": "bpm"},
      {"measurement": "NRS feeling sick", "setting": "healthy volunteers [1]; [5]", "result": 1.9},
      {"measurement": "Systolic blood pressure", "setting": "healthy volunteers [1]; [5]", "result": 115.5, "unit": "mm Hg"},
      {"measurement": "Body temperature", "setting": "healthy volunteers [1]; [6]", "result": 36.93},
      {"measurement": "Diastolic blood pressure", "setting": "healthy volunteers [1]; [6]", "result": 63.9, "unit": "mm Hg"},
      {"measurement": "Heart rate", "setting": "healthy volunteers [1]; [6]", "result": 71.1, "unit": "bpm"},
      {"measurement": "NRS feeling sick", "setting": "healthy volunteers [1]; [6]", "result": 1.9},
      {"measurement": "Systolic blood pressure", "setting": "healthy volunteers [1]; [6]", "result": 117.3, "unit": "mm Hg"},
      {"measurement": "Body temperature", "setting": "healthy volunteers [1]; [7]", "result": 36.97},
      {"measurement": "Diastolic blood pressure", "setting": "healthy volunteers [1]; [7]", "result": 62.7, "unit": "mm Hg"},
      {"measurement": "Heart rate", "setting": "healthy volunteers [1]; [7]", "result": 70.5, "unit": "bpm"},
      {"measurement": "NRS feeling sick", "setting": "healthy volunteers [1]; [7]", "result": 2.0},
      {"measurement": "Systolic blood pressure", "setting": "healthy volunteers [1]; [7]", "result": 114.0, "unit": "mm Hg"},
      {"measurement": "therapeutic effect on C-Reactive Protein (CRP)", "setting": "[2]; IV LPS, in words, vs placebo", "result": "no therapeutic effect"},
      {"measurement": "therapeutic effect on the inflammatory biomarkers cytokines", "setting": "[2]; IV LPS, in words, vs placebo", "result": "no therapeutic effect"},
      {"measurement": "C-Reactive Protein", "setting": "[2]; [5]", "result": 10.893, "unit": "mg/mL"},
      {"measurement": "IL-6 in plasma", "setting": "[2]; [5]", "result": 19.587, "unit": "pg/mL"},
      {"measurement": "IL-8 in plasma", "setting": "[2]; [5]", "result": 19.393, "unit": "pg/mL"},
      {"measurement": "IL-10 in plasma", "setting": "[2]; [5]", "result": 8.125, "unit": "pg/mL"},
      {"measurement": "TNF-α in plasma", "setting": "[2]; [5]", "result": 5.574, "unit": "pg/mL"},
      {"measurement": "C-Reactive Protein", "setting": "[2]; [6]", "result": 11.080, "unit": "mg/mL"},
      {"measurement": "IL-6 in plasma", "setting": "[2]; [6]", "result": 16.012, "unit": "pg/mL"},
      {"measurement": "IL-8 in plasma", "setting": "[2]; [6]", "result": 19.843, "unit": "pg/mL"},
      {"measurement": "IL-10 in plasma", "setting": "[2]; [6]", "result": 11.825, "unit": "pg/mL"},
      {"measurement": "TNF-α in plasma", "setting": "[2]; [6]", "result": 5.415, "unit": "pg/mL"},
      {"measurement": "C-Reactive Protein", "setting": "[2]; [7]", "result": 11.853, "unit": "mg/mL"},
      {"measurement": "IL-6 in plasma", "setting": "[2]; [7]", "result": 13.712, "unit": "pg/mL"},
      {"measurement": "IL-8 in plasma", "setting": "[2]; [7]", "result": 17.820, "unit": "pg/mL"},
      {"measurement": "IL-10 in plasma", "setting": "[2]; [7]", "result": 7.527, "unit": "pg/mL"},
      {"measurement": "TNF-α in plasma", "setting": "[2]; [7]", "result": 5.039, "unit": "pg/mL"},
      {"measurement": "change in basophils compared to placebo control", "setting": "healthy volunteers [3]; IV LPS, in words", "result": "dose dependent pronounced increase"},
      {"measurement": "change in neutrophils compared to placebo control", "setting": "healthy volunteers [3]; IV LPS, in words", "result": "dose dependent pronounced increase"},
      {"measurement": "change in lymphocytes compared to placebo control", "setting": "healthy volunteers [3]; IV LPS, in words, FIG. 1", "result": "dose dependent pronounced increase"},
      {"measurement": "Basophil count", "setting": "healthy volunteers [3]; [5]", "result": "0.029 E9/L"},
      {"measurement": "Eosinophil count", "setting": "healthy volunteers [3]; [5]", "result": "0.114 E9/L"},
      {"measurement": "Lymphocyte count", "setting": "healthy volunteers [3]; [5]", "result": "1.046 E9/L"},
      {"measurement": "Monocyte count", "setting": "healthy volunteers [3]; [5]", "result": "0.335 E9/L"},
      {"measurement": "Neutrophil count", "setting": "healthy volunteers [3]; [5]", "result": "6.650 E9/L"},
      {"measurement": "Basophil count", "setting": "healthy volunteers [3]; [6]", "result": "0.032 E9/L"},
      {"measurement": "Eosinophil count", "setting": "healthy volunteers [3]; [6]", "result": "0.105 E9/L"},
      {"measurement": "Lymphocyte count", "setting": "healthy volunteers [3]; [6]", "result": "1.136 E9/L"},
      {"measurement": "Monocyte count", "setting": "healthy volunteers [3]; [6]", "result": "0.339 E9/L"},
      {"measurement": "Neutrophil count", "setting": "healthy volunteers [3]; [6]", "result": "5.788 E9/L"},
      {"measurement": "Basophil count", "setting": "healthy volunteers [3]; [7]", "result": "0.039 E9/L"},
      {"measurement": "Eosinophil count", "setting": "healthy volunteers [3]; [7]", "result": "0.117 E9/L"},
      {"measurement": "Lymphocyte count", "setting": "healthy volunteers [3]; [7]", "result": "1.369 E9/L"},
      {"measurement": "Monocyte count", "setting": "healthy volunteers [3]; [7]", "result": "0.376 E9/L"},
      {"measurement": "Neutrophil count", "setting": "healthy volunteers [3]; [7]", "result": "7.073 E9/L"}
    ]}
  ]
}
